Key:
[1] = tested on: P388; test: Dose giving a 50% decrease in the living cell number (P388 cells); format: functional; details: Mus musculus, read-out: LD50 (the source's name)
[2] = tested on: P388; test: Cytotoxicity against P388 cells is the dose giving 50% decrease in the formation of formazan dye; format: functional, cell-based; details: Mus musculus
[3] = tested on: J774; test: Dose giving a 50% decrease in the living cell number (J774 cells); format: functional; details: Mus musculus, read-out: LD50 (the source's name)
[4] = tested on: ECV-304; test: Cytotoxicity against ECV-304 cells is the dose giving 50% decrease in the formation of formazan dye; format: functional, cell-based; details: Homo sapiens
[5] = tested on: A-431; test: Dose giving a 50% decrease in the living cell number ([…] cells); format: functional; details: Homo sapiens, read-out: LD50 (the source's name)
[6] = tested on: J774; test: Cytotoxicity against J774 cells is the dose giving 50% decrease in the formation of formazan dye; format: functional, cell-based; details: Mus musculus
[7] = tested on: A-431; test: Cytotoxicity against […] cells is the dose giving 50% decrease in the formation of formazan dye; format: functional, cell-based; details: Homo sapiens
[8] = tested on: ECV-304; test: Dose giving a 50% decrease in the living cell number (ECV-304 cells); format: functional; details: Homo sapiens, read-out: LD50 (the source's name)
[9] = tested on: HL-60; test: Dose giving a 50% decrease in the living cell number (HL-60 cells); format: functional; details: Homo sapiens, read-out: LD50 (the source's name)
[10] = tested on: HL-60; test: Cytotoxicity against HL-60 cells is the dose giving 50% decrease in the formation of formazan dye; format: functional, cell-based; details: Homo sapiens

Structure (SMILES)	CC50 [1] [µM]	IC50 [2] [µM]	further results
Cc1csc2ncnc(NCCc3ccccc3)c12	43	0.029	–
Cc1csc2ncnc(NCCc3ccc(O)cc3)c12	86	0.19	–
Clc1ccc(CCNc2ncnc3sccc23)cc1	73	0.035	–
Cc1csc2ncnc(NCc3ccc(Cl)cc3)c12	74	0.17	–
Cc1csc2ncnc(NCCc3ccc(F)cc3)c12	68	0.029	–
COc1ccc(CCNc2ncnc3scc(C)c23)cc1	46	0.0074	–
Cc1csc2ncnc(NCCc3ccc(Cl)cc3)c12	35	0.0052	CC50 [3]: 43 µM; IC50 [4]: 34 µM; CC50 [5]: 51 µM; IC50 [6]: 0.005 µM; IC50 [7]: 20 µM; CC50 [8]: 53 µM; CC50 [9]: 67 µM; IC50 [10]: 0.0085 µM
Clc1ccc(CCNc2ncnc3ccsc23)cc1	41	0.029	–
Clc1ccc(CCNc2[nH]cnc3ncnc2-3)cc1	96	7.3	–
Cc1csc2ncnc(NCCC(=O)O)c12	250	12	–
Cc1csc2ncnc(NCCc3ccc(Br)cc3)c12	58	0.0011	–
Cc1csc2ncnc(Cl)c12	490	33	–
CCCNc1ncnc2scc(C)c12	85	5.5	–
Cc1csc2ncnc(NCCCc3ccc(Cl)cc3)c12	98	1.3	–
Cc1csc2ncnc(NCCc3ccc(N)cc3)c12	39	0.022	–

Reference: ChEMBL document CHEMBL1132067, “Cytotoxic effects of NSL-1406, a new thienopyrimidine derivative, on leukocytes and osteoclasts” (Bioorg Med Chem Lett, 1999)
